# In patent publication US20070117770A1, “Human ribosomal DNA (rDNA) and ribosomal RNA (rRNA) nucleic acids and uses thereof” (Cylene Pharmaceuticals, Inc., priority 2005, published 2007):
# What was measured:
# Assay in all cases: Protein kinase inhibition assay
# Type in all cases: biochemical
# NEK7(h) = NEK7(h) (Homo sapiens, UniProt Q8TDX7); conditions: read-out: percent residual activity of NEK7(h)
# Method: (§1) Certain compounds were tested for activity in protein kinase inhibition assays. All substrates were dissolved and diluted to working stocks in de-ionized water, apart from histone H1 (10× working stock in 20 mM MOPS pH 7.0), PDKtide (10× working stock in 50 mM Tris pH 7.0) ATF2 (which is typically stored at a 20× working stock in 50 mM Tris pH 7.5, 150 mM NaCl, 0.1 mM EGTA, 0.03% Brij-35, 50% glycerol, 1 mM benzamidine, 0.2 mM PMSF and 0.1% R-mercaptoethanol), KKLNRTLSFAEPG (SEQ ID NO:203) and RRRLSFAEPG (SEQ ID NO:204) (50 mM HEPES pH 7.4) and GGEEEEYFELVKKKK (SEQ ID NO:205) (20 mM MOPS pH 7.0). All kinases were pre-diluted to a 10× working concentration prior to addition into the assay. The composition of the dilution buffer for each kinase is detailed below.
# (§2) In a final reaction volume of 25 μl, NEK7 (h) (5-10 mU) is incubated with 8 mM MOPS pH 7.0, 0.2 mM EDTA, 300 μM FLAKSFGSPNRAYKK (SEQ ID NO:221), 10 mM MgAcetate and [gamma-33P-ATP] (specific activity approx. 500 cpm/pmol, concentration as required). The reaction is initiated by the addition of the MgATP mix. After incubation for 40 minutes at room temperature, the reaction is stopped by the addition of 5 μl of a 3% phosphoric acid solution. 10 pi of the reaction is then spotted onto a P30 filtermat and washed three times for 5 minutes in 75 mM phosphoric acid and once in methanol prior to drying and scintillation counting.
# PKCβI(h) = PKCβI(h) (Homo sapiens, UniProt P05771); conditions: read-out: percent residual activity of PKCβI(h)
# Method: as §1
# In a final reaction volume of […], PKCβI (h) (5-10 mU) is incubated with 20 mM HEPES pH 7.4, 0.03% Triton X-100, 0.1 mM CaCl2, 0.1 mg/ml phosphatidylserine, 10 μg/ml diacylglycerol, 0.1 mg/ml histone H1, 10 mM MgAcetate and [gamma-33P-ATP] (specific activity approx. 500 cpm/pmol, concentration as required). The reaction is initiated by the addition of the MgATP mix. After incubation for 40 minutes at room temperature, the reaction is stopped by the addition of 5 μl of a 3% phosphoric acid solution. […]
# SGK3(h) = SGK3(h) (Homo sapiens, UniProt Q96BR1); conditions: read-out: percent residual activity of SGK3(h)
# Method: as §1
# as §2, with “SGK3” for “NEK7”, “250” for “300”, “GRPRTSSFAEGKK” for “FLAKSFGSPNRAYKK”, “NO:226),” for “NO:221),”, “μl” for “pi”
# EphA3(h) = EphA3(h) (Homo sapiens, UniProt P29320); conditions: read-out: percent residual activity of EphA3(h)
# Method: as §1
# as §2, with “EphA3” for “NEK7”, “0.1 mg/ml poly(Glu, Tyr) 4:1,” for “300 μM FLAKSFGSPNRAYKK (SEQ ID NO:221),”, “μl” for “pi”, “Filtermat A” for “P30 filtermat”
# MINK(h) = MINK(h) (Homo sapiens, UniProt Q8N4C8); conditions: read-out: percent residual activity of MINK(h)
# Method: as §1
# as §2, with “MINK” for “NEK7”, “0.33 mg/ml myelin basic protein,” for “300 μM FLAKSFGSPNRAYKK (SEQ ID NO:221),”, “μl” for “pi”
# Yes(h) = Yes(h) (Homo sapiens, UniProt P07947); conditions: read-out: percent residual activity of Yes(h)
# Method: as §1
# as §2, with “Yes” for “NEK7”, “0.1 mg/ml poly(Glu, Tyr) 4:1,” for “300 μM FLAKSFGSPNRAYKK (SEQ ID NO:221),”, “μl” for “pi”, “Filtermat A” for “P30 filtermat”
# PKCβI(h), sequence (P05771 whole entry): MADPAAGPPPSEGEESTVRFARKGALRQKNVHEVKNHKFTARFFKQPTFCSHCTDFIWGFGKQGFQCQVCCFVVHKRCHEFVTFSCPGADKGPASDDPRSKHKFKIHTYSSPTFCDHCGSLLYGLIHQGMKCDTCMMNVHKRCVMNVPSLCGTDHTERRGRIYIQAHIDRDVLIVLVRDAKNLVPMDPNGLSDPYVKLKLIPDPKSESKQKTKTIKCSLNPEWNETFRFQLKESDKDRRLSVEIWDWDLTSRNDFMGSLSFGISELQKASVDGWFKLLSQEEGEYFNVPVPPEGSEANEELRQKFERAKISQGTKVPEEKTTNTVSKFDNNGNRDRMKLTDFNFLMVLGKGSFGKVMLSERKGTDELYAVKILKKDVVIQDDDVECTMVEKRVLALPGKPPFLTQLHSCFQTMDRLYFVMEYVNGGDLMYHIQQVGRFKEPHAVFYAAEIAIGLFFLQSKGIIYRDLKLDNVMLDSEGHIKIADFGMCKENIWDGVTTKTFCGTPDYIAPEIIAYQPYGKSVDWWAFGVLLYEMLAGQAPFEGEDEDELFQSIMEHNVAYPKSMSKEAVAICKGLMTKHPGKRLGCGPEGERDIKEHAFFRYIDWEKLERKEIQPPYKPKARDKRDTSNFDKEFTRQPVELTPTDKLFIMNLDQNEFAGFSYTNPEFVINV
# NEK7(h), sequence (Q8TDX7 whole entry): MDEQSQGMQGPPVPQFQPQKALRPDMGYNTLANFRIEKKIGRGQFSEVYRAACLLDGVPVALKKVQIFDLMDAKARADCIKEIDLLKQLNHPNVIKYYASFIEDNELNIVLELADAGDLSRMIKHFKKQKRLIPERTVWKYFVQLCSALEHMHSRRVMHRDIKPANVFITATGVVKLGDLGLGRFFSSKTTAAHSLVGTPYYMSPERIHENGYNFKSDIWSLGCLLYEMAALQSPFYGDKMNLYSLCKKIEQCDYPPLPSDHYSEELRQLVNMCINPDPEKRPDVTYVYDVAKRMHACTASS
# EphA3(h), sequence (P29320 21-983): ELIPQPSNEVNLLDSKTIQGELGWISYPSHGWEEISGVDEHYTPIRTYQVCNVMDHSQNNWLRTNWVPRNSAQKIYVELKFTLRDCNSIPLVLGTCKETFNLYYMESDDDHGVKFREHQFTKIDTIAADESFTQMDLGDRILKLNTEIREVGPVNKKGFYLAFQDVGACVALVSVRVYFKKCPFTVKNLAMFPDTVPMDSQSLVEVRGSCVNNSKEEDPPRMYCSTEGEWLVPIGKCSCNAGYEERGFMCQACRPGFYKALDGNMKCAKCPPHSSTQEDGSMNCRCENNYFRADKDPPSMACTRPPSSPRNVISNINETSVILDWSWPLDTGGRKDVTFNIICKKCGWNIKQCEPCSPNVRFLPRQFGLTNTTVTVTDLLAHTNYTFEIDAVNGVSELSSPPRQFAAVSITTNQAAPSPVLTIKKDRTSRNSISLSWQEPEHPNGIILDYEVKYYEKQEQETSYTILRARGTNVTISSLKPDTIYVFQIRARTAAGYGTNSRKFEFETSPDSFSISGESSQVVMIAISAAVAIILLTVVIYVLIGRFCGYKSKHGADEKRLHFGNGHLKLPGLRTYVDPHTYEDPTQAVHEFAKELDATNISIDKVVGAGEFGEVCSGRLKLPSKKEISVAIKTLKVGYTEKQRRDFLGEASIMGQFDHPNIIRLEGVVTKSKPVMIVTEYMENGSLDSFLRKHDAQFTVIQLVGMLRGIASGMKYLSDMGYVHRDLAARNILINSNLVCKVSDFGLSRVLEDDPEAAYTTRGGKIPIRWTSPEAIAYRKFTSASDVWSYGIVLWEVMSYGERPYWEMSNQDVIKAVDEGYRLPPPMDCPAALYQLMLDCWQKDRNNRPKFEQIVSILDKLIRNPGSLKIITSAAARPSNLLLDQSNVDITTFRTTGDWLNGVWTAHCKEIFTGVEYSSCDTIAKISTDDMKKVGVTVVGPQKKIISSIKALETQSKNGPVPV
# SGK3(h), sequence (Q96BR1 whole entry): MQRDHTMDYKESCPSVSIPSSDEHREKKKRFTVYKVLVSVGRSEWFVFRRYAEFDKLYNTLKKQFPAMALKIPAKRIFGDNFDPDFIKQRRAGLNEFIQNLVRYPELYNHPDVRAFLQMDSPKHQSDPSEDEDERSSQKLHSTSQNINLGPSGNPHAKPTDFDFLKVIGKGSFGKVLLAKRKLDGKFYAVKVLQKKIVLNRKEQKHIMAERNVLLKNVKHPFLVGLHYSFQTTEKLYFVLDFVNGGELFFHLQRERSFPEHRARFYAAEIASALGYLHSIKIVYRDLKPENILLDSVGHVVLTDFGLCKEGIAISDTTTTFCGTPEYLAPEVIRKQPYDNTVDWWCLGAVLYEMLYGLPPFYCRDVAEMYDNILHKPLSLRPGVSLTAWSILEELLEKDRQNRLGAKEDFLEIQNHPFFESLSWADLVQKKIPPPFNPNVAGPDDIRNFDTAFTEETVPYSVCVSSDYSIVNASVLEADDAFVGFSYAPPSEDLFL
# Yes(h), sequence (P07947 whole entry): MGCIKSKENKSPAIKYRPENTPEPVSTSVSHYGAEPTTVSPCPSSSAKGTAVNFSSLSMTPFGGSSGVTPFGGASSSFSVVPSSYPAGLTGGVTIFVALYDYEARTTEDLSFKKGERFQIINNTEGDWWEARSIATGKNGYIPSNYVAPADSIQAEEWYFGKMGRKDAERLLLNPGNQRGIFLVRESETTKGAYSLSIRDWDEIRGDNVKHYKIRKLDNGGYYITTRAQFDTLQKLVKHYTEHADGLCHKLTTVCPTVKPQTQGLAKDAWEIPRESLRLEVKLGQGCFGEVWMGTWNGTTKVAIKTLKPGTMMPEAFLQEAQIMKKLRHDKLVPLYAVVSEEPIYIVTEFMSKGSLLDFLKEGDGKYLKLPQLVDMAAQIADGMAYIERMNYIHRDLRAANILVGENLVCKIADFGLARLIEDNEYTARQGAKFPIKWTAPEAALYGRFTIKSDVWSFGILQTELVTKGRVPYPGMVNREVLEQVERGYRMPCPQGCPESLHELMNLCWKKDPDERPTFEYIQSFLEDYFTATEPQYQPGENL
# MINK(h), sequence (Q8N4C8 whole entry): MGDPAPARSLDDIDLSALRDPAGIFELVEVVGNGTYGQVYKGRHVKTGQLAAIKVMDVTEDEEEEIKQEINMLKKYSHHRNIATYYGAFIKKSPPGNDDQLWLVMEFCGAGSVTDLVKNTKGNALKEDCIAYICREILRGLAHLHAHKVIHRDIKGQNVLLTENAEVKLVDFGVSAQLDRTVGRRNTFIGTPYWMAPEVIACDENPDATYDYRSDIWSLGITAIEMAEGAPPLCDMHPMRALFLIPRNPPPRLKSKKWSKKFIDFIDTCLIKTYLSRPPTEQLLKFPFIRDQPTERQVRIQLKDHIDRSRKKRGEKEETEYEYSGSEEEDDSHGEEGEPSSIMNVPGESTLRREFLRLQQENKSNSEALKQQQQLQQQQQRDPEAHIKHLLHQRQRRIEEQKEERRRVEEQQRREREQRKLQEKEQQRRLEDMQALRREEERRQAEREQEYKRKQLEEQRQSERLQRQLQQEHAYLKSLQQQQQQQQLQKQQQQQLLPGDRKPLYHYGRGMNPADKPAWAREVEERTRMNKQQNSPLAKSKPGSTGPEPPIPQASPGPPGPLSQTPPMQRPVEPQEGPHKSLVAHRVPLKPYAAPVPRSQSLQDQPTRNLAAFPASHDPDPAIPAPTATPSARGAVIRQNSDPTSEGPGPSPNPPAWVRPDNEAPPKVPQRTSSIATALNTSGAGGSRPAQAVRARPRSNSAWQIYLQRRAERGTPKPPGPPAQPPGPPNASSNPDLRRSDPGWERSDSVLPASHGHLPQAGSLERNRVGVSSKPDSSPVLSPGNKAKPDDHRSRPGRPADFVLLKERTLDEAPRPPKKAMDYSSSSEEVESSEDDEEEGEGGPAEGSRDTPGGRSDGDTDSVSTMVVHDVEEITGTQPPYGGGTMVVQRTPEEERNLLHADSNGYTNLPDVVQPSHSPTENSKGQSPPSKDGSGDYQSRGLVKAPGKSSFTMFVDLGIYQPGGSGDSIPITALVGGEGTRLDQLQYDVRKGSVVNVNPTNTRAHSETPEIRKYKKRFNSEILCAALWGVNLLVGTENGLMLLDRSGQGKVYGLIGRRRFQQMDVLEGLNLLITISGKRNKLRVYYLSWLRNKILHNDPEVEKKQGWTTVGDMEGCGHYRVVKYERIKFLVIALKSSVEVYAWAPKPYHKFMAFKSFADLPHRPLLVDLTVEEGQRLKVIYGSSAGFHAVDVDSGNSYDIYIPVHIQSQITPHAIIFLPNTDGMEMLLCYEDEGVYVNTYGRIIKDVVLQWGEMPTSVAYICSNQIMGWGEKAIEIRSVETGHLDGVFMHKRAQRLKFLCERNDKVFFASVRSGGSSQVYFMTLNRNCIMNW
remaining activity at 2.5 µM (NEK7(h)),remaining activity at 2.5 µM (PKCβI(h)),remaining activity at 2.5 µM (SGK3(h)),remaining activity at 2.5 µM (EphA3(h)),remaining activity at 2.5 µM (MINK(h)),remaining activity at 2.5 µM (Yes(h)),Compound
101%,97%,128%,118%,97%,96%,CC(=O)N1CCN(c2ccc3c(=O)c(C(=O)NCCN4CCCC4)c4n(C)c5ccccc5n4c3n2)CC1 [Compound B-1]
102%,94%,44%,91%,72%,81%,CN1CCCC1CCNC(=O)c1cn2c3c(c(N4CCC(c5cnccn5)C4)c(F)cc3c1=O)Oc1cc3ccccc3cc1-2 (stereo not drawn) [Compound A-1]
